Measurements reported in patent US20240366581A1 (Hoffmann-La Roche Inc., priority 2022, published 2024).

How the values were obtained:
Assay type in all cases: biochemical
SIK2 = SIK2 (Homo sapiens (Human), UniProt Q9H0K1); assay: SIK2 enzymatic activity assay, RapidFire mass spectrometry (CHK-peptide phosphorylation); conditions: 0.5 nM SIK2, CHK-peptide, ATP, 30 min pre-incubation, 45 min reaction, RapidFire MS; read-out: SIK2 RF IC50
Method: (§1) In the presence of SIK2 (resp. SIK1 or SIK3) and ATP the CHK-peptide ([…] with C-terminal arginine amide modification) were phosphorylated at one of the four feasible serine's. Only one phosphorylation is observed under the assay conditions. 60 nl of each compound dilution series (12 point; dilution factor 3, generally 30 μM to 170 pM) in DMSO were transferred by acoustic dispensing to the assay plate and 30 min pre-incubated (ambient temperature) after the addition of 5 μl SIK1 (5 nM) resp. 5 μl SIK2 (0.5 nM) or 7 μl SIK3 (1.5 nM) in assay-buffer (12.5 mM HEPES (pH 7.0), 10 mM magnesium acetate, 0.005% BSA). 10 μM CHK-peptide solution and 5 μl 100 μM ATP for SIK1 & SIK2 resp. 3 μl for SIK3 in assay-buffer were added and incubated ambient for 45 min. 40 μl 0.125% formic acid in water were added to quench the reaction. RapidFire (RF) Mass Spectrometry was utilized for data generation as described below. The multiple charged species (3-5 charges) for the phosphorylated and non-phosphorylated form measured by MRM (Multiple Reaction Monitoring; API5000 or 6500+) or EIC (Extracted Ion Current; QToF) were summed up and the ratio calculated (sum phosphorylated species/sum all species) for data evaluation. Normalization was performed by Genedata software based on the non-inhibition control DMSO and the commercially available SIK inhibitor @ 1 μM YKL-05-099 (CAS number 1936529-65-5). The results of the assay are expressed in half-maximal inhibitory concentrations (IC50s) and are summarized below in Table 1.
(§2) Samples were aspirated by vacuum for max. 600 ms and loaded to C4-cartridge (Agilent; #G9203A) for 3000 ms@1.5 ml/min with 0.1% formic acid in water. Afterwards samples were transferred to the API5000 (API6500+) or QToF mass spectrometer for 4000 ms@1.25 ml/min with 90% acetonitrile; 10% water; 0.007% TFA; 0.093 formic acid. The cartridge was reconditioned for additional 500 ms with 0.1% formic acid in water
(§3) All MS analyses using the following MS-setup in MRM mode: Electrospray positive; Ion Spray Voltage: 4000V; Temperature: 550° C.; Collision Gas: 5; Curtain Gas: 15; Gas1: 40; Gas 2: 42; EP: 10
(§4) All MS analyses using the following MS-setup in Mode MS: Dual AJS Electrospray positive; VCap: 3000V; Drying & Sheath gas: 340° C.@81/min; Nebulizer: 60 psig; Nozzle Voltage: 2000V; Fragmentor: 130V; Skimmer: 35V; Oct1 RF Vpp: 700V; Ref masses on@5spectra/s

SIK3 = SIK3 (Homo sapiens (Human), UniProt Q9Y2K2); assay: SIK3 enzymatic activity assay, RapidFire mass spectrometry (CHK-peptide phosphorylation); conditions: 1.5 nM SIK3, CHK-peptide, ATP, 30 min pre-incubation, 45 min reaction, RapidFire MS; read-out: SIK3 RF IC50
SIK3, sequence (Q9Y2K2 whole entry): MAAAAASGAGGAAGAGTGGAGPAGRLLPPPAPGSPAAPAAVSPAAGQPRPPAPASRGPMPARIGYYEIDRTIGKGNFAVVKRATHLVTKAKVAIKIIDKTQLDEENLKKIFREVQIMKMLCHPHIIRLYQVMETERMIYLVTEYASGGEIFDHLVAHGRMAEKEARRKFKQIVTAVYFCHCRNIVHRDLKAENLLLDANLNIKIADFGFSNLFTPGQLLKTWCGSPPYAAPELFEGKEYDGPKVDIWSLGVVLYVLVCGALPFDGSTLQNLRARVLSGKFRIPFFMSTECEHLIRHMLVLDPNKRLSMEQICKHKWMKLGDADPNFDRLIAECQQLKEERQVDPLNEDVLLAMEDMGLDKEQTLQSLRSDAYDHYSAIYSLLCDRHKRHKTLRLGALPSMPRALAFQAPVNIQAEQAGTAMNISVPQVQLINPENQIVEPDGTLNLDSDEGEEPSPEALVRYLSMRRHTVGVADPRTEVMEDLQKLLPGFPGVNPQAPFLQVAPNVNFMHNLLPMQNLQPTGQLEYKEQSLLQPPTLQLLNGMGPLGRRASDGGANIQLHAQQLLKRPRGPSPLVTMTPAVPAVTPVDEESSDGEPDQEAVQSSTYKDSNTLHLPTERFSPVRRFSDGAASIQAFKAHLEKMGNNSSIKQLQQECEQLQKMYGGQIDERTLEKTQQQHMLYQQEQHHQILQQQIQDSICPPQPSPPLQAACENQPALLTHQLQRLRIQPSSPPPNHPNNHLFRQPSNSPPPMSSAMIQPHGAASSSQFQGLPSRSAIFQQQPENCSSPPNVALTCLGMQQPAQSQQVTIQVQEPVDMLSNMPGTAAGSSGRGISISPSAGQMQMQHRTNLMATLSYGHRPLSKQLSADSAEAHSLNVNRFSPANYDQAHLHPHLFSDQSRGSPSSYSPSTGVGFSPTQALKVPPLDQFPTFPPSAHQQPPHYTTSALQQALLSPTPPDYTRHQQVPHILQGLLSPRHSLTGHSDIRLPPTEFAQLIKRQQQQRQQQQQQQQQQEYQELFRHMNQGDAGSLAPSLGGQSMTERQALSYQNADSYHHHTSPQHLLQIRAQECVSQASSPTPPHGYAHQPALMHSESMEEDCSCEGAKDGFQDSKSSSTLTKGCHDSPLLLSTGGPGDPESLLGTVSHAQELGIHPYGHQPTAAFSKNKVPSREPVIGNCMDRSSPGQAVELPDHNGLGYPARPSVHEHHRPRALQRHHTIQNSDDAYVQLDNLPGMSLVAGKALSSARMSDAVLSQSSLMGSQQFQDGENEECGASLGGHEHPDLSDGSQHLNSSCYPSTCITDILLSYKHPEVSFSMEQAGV
Method: as §1, §2, §3, §4

SIK1 = SIK1 (Homo sapiens (Human), UniProt P57059); assay: SIK1 enzymatic activity assay, RapidFire mass spectrometry (CHK-peptide phosphorylation); conditions: 5 nM SIK1, CHK-peptide, ATP, 30 min pre-incubation, 45 min reaction, RapidFire MS; read-out: SIK1 RF IC50
SIK1, sequence (P57059 whole entry): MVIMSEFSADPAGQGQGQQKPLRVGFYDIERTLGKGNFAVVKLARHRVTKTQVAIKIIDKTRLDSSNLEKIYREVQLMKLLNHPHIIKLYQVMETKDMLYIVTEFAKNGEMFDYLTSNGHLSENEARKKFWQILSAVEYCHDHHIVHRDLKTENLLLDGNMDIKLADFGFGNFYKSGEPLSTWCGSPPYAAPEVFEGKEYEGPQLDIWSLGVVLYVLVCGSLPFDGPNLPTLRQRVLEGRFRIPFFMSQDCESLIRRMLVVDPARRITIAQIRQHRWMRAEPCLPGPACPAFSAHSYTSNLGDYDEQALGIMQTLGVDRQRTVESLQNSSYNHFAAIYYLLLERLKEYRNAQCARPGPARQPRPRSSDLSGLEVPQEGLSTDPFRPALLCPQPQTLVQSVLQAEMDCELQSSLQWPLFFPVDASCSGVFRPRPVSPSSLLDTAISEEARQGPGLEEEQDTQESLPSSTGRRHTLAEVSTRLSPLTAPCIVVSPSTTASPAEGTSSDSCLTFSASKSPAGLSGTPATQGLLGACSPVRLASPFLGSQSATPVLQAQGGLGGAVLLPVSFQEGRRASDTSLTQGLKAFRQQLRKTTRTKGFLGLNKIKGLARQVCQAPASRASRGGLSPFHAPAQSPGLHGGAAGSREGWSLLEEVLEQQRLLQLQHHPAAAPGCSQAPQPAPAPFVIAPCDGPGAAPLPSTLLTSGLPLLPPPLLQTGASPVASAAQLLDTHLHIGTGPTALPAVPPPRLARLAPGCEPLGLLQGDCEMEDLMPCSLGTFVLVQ
Method: as §1, §2, §3, §4

SIK2, sequence (Q9H0K1 whole entry): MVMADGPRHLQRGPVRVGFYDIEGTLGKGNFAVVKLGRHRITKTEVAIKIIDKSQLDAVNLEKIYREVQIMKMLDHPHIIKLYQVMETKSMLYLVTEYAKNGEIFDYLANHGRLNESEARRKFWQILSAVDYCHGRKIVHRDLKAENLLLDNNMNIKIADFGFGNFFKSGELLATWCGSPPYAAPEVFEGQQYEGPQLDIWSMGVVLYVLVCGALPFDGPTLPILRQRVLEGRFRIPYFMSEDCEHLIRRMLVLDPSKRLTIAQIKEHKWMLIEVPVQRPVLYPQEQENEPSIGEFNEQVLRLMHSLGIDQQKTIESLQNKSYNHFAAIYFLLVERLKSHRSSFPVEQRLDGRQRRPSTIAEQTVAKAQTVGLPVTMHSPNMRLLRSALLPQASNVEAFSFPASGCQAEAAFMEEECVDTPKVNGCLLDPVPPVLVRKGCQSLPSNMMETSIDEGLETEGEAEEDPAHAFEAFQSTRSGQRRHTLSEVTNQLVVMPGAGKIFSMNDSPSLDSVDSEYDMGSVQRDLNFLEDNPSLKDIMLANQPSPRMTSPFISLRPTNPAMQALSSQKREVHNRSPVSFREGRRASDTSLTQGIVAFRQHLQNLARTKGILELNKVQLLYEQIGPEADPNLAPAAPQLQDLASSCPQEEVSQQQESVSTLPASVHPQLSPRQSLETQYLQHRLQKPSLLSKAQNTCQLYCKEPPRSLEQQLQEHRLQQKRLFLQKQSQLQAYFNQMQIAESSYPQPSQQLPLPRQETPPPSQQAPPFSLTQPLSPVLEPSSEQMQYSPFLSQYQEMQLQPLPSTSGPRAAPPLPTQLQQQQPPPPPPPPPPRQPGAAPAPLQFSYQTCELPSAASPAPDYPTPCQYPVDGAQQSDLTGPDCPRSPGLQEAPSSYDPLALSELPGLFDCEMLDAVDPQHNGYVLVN

## Cc1cc(C#N)nn1-c1nc(-n2cnc3cc(N[C@H]4CNC[C@H]4F)ccc32)ccc1C(N)=O [Example 25, 2-(3-Cyano-5-methyl-pyrazol-1-yl)-6-[5-[[(3S,4R)-4-fluoropyrrolidin-3-yl]amino]benzimidazol-1-yl]pyridine-3-carboxamide; formic acid]
SIK2
  IC50: 171 nM
SIK3
  IC50: 257 nM
SIK1
  IC50: 914 nM

## COC(=O)c1ccc(-n2cnc3cc(Nc4ccc(C)nn4)ccc32)nc1-n1nc(OC)cc1C [Example 26, Methyl 2-(3-methoxy-5-methyl-pyrazol-1-yl)-6-[5-[(6-methylpyridazin-3-yl)amino]benzimidazol-1-yl]pyridine-3-carboxylate]
SIK2
  IC50: 154 nM
SIK3
  IC50: 49.4 nM
SIK1
  IC50: 17800 nM

## CC(=O)c1ccc(-n2cnc3cc(Nc4ccc(C)nn4)ccc32)nc1-n1nc(C#N)cc1C [Example 27, 1-[3-Acetyl-6-[5-[(6-methylpyridazin-3-yl)amino]benzimidazol-1-yl]-2-pyridyl]-5-methyl-pyrazole-3-carbonitrile]
SIK2
  IC50: 6.6 nM
SIK3
  IC50: 8.1 nM
SIK1
  IC50: 669 nM

## CC(=O)c1ccc(-n2cnc3ccc(Nc4ccc(C)nn4)cc32)nc1-n1nc(C#N)cc1C [Example 28, 1-[3-Acetyl-6-[6-[(6-methylpyridazin-3-yl)amino]benzimidazol-1-yl]-2-pyridyl]-5-methyl-pyrazole-3-carbonitrile]
SIK2
  IC50: 111 nM
SIK3
  IC50: 184 nM
SIK1
  IC50: 308 nM

## CC(=O)c1ccc(-n2cnc3cc4c(cc32)CCN4)nc1-n1nc(C#N)cc1C [Example 31, 1-[3-acetyl-6-(6,7-dihydro-5H-pyrrolo[2,3-f]benzimidazol-1-yl)-2-pyridyl]-5-methyl-pyrazole-3-carbonitrile]
SIK2
  IC50: 9.1 nM
SIK3
  IC50: 1230 nM
SIK1
  IC50: 13 nM

## Cc1ccc(Nc2ccc3ncn(-c4ccc(C=O)c(N5C[C@H](C#N)C[C@@H]5C)n4)c3c2)nn1 [Example 32, (3R,5S)-1-[3-formyl-6-[6-[(6-methylpyridazin-3-yl)amino]benzimidazol-1-yl]-2-pyridyl]-5-methyl-pyrrolidine-3-carbonitrile]
SIK2
  IC50: 19.9 nM
SIK3
  IC50: 988 nM
SIK1
  IC50: 43 nM

## Cc1ccc(Nc2ccc3c(c2)ncn3-c2ccc(C=O)c(N3C[C@H](C#N)C[C@@H]3C)n2)nn1 [Example 33, (3R,5S)-1-[3-formyl-6-[5-[(6-methylpyridazin-3-yl)amino]benzimidazol-1-yl]-2-pyridyl]-5-methyl-pyrrolidine-3-carbonitrile]
SIK2
  IC50: 95.1 nM
SIK3
  IC50: 562 nM
SIK1
  IC50: 76 nM

## Cc1ccc(Nc2ccc3c(c2)ncn3-c2ccc(C(=O)C(F)(F)F)c(-n3nc(C#N)cc3C)n2)nn1 [Example 34, 5-methyl-1-[6-[5-[(6-methylpyridazin-3-yl)amino]benzimidazol-1-yl]-3-(2,2,2-trifluoroacetyl)-2-pyridyl]pyrazole-3-carbonitrile]
SIK2
  IC50: 41.4 nM
SIK3
  IC50: 31.7 nM
SIK1
  IC50: 2330 nM

## CC(=O)c1ccc(-n2cnc3cc4c(cc32)C(C)(C)C(=O)N4c2ccc(C)nn2)nc1-n1nc(C#N)cc1C [Example 35, 1-[3-acetyl-6-[6-keto-7,7-dimethyl-5-(6-methylpyridazin-3-yl)pyrrolo[2,3-f]benzimidazol-1-yl]-2-pyridyl]-5-methyl-pyrazole-3-carbonitrile]
SIK2
  IC50: 115 nM
SIK3
  IC50: 150 nM
SIK1
  IC50: 101 nM

## Cc1ccc(Nc2ccc3c(c2)ncn3-c2ccc(C=O)c(-n3nc(C#N)cc3C)n2)nn1 [Example 36, 1-[3-formyl-6-[5-[(6-methylpyridazin-3-yl)amino]benzimidazol-1-yl]-2-pyridyl]-5-methyl-pyrazole-3-carbonitrile]
SIK2
  IC50: 5.2 nM
SIK3
  IC50: 0.7 nM
SIK1
  IC50: 274 nM

## CC(=O)c1ccc(-n2cnc3cc(Nc4cccn(C)c4=O)ccc32)nc1-n1nc(C#N)cc1C [Example 37, 1-[3-acetyl-6-[5-[(2-keto-1-methyl-3-pyridyl)amino]benzimidazol-1-yl]-2-pyridyl]-5-methyl-pyrazole-3-carbonitrile]
SIK2
  IC50: 502 nM
SIK3
  IC50: 208 nM
SIK1
  IC50: > 10000 nM

## COc1nn(C)cc1-c1ccc2c(c1)ncn2-c1ccc(C(C)=O)c(-n2nc(C#N)cc2C)n1 [Example 38, 1-[3-acetyl-6-[5-(3-methoxy-1-methyl-pyrazol-4-yl)benzimidazol-1-yl]-2-pyridyl]-5-methyl-pyrazole-3-carbonitrile]
SIK2
  IC50: 754 nM
SIK3
  IC50: 1790 nM
SIK1
  IC50: 3490 nM

## CC(=O)c1ccc(-n2cnc3cc(Nc4ccc(C5CCCN5)nn4)ccc32)nc1-n1nc(C#N)cc1C (stereo not drawn) [Example 39, 1-[3-acetyl-6-[5-[(6-pyrrolidin-2-ylpyridazin-3-yl)amino]benzimidazol-1-yl]-2-pyridyl]-5-methyl-pyrazole-3-carbonitrile]
SIK2
  IC50: 43.7 nM
SIK3
  IC50: 728 nM
SIK1
  IC50: 6580 nM

## Cc1ccc(Nc2ccc3ncn(-c4ccc(C=O)c(-n5nc(C#N)cc5C)n4)c3c2)nn1 [Example 40, 1-[3-formyl-6-[6-[(6-methylpyridazin-3-yl)amino]benzimidazol-1-yl]-2-pyridyl]-5-methyl-pyrazole-3-carbonitrile]
SIK2
  IC50: 536 nM
SIK3
  IC50: 8800 nM
SIK1
  IC50: > 30000 nM
